The text below walks through data of patent publication EP0129461B1, “Derivatives of isoindoledicarboxylic acids, their preparation and pharmaceutical compositions thereof” (ADIR, priority 1983, dated 1984).

The test system of the experiment is angiotensine convertase. Put plainly: Inhibition of circulating angiotensin convertase in the anaesthetised rat (protocol of D.M. Gross et al.), i.v. dosing. The conditions noted are these: I.V. dose inhibiting 50% of the activity of the angiotensine convertase present in the circulation. In kind it is in vivo. The text has this:
Les composés de l'invention ont été soumis à une étude pharmacologique chez le rat anesthésié selon le protocole décrit par D.M. GROSS et coll. [J. Phar- macol. and Exp. Ther. 216, 552-557, 1981 )].
La dose I.V. capable d'inhiber 50% de l'activité de l'angiotensine convertase présente dans la circulation (DE50) a été déterminée.

The structures appear in SMILES notation.

Regarding `CCC[C@H](N[C@@H](C)C(=O)N1CC2CCCCC2[C@@H]1C(=O)O)C(=O)OCC` (stereo partly drawn) [Exemple IV, [N-<(S)-éthoxycarbonyl-1 butyl>-(S)alanyl]-2 (R)-carboxy-1 perhydroisoindole], the DE50 is >300 mg/kg.
Next, `CCC[C@H](N[C@@H](C)C(=O)N1Cc2ccccc2[C@H]1C(=O)O)C(=O)OCC` [Exemple I]: 0,022 mg/kg.
On to `CCC[C@H](N[C@@H](C)C(=O)N1Cc2ccccc2[C@@H]1C(=O)O)C(=O)OCC` [II, (N-((S)-éthoxycarbonyl-1 butyl)-(S)alanyl]-2 (R)-carboxy-1 isoindoline], for which the DE50 is reported as 0,170 mg/kg.
Next, `CCC[C@H](N[C@@H](C)C(=O)N1CC2CCCCC2[C@H]1C(=O)O)C(=O)OCC` (stereo partly drawn) [III, [N-<(S)-éthoxycarbonyl-1 butyl)-(S) alanyl]-2 (S)-carboxy-1 perhydroisoindole, maléate]: 0,020 mg/kg.
